The values below come from US10125125B2, “N-(heteroaryl)-sulfonamide derivatives useful as S100-inhibitors” (Active Biotech AB, priority 2013, dated 2018).

The IC50 is the concentration that inhibits the measured activity by half.

Sequence of biotinylated human S100A9 : rhRAGE-Fc interaction (P06702 whole entry): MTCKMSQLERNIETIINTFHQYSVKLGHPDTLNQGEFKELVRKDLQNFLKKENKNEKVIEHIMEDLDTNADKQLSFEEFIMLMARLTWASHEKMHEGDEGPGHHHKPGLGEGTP

The test addresses biotinylated human S100A9 : rhRAGE-Fc interaction (Homo sapiens (Human), UniProt P06702). Description: AlphaScreen inhibition assay, Biot-hS100A9:hRAGE-Fc (S100A9-RAGE inhibition assay). The class given is binding. From the text:
FIG. 1 is a schematic representation of an assay of the inhibition of the interaction between biotinylated human S100A9 and human RAGE-Fc using a small molecule S100A9 binder.
Inhibition Assay, Biot-hS100A9:hRAGE-Fc
The AlphaScreen (Amplified Luminescent Proximity Homogeneous Assay) contains two types of beads, Alpha Donor beads and Acceptor beads (PerkinElmer). Upon laser excitation at 680 nm a photosensitizer in the Donor bead converts ambient oxygen to a more excited singlet state. The singlet oxygen molecule diffuses (maximum 200 nm) to react with a thioxene derivative in the Acceptor bead and generates a chemiluminescence reaction. Fluorophores in the Acceptor bead subsequently emit light at 520-620 nm which can be detected in the EnVision® Multilabel plate Reader (PerkinElmer). The beads are light sensitive and all work with the beads is performed under subdued light conditions or using green filters on light sources (Roscolux Chroma Green #389, Rosco).
In the AlphaScreen Inhibition Assay described here, protein A (Staphylococcus aureus) conjugated Acceptor beads are used together with streptavidin coated Donor beads (Perkin Elmer 6760617M). The Acceptor beads are pre-incubated with Fc-tagged recombinant human RAGE (rhRAGE-Fc) allowing binding of the rhRAGE-Fc to protein A on the beads. Biotinylated human S100A9 (biot-hS100A9) is pre-incubated with the low molecular test compounds. The pre-mixes are then added to the wells of a micro-plate and incubated allowing interaction between biot-hS100A9 and rhRAGE-Fc. Subsequent addition of streptavidin coated Donor beads causes binding of the streptavidin to the biotinylated hS100A9. After an additional incubation the signal is measured.
Without inhibitory compounds, the interaction of biot-hS100A9 to rhRAGE-Fc will bring the Acceptor and Donor beads in close proximity thus generating a high signal. With an inhibitor present the complex will not form resulting in a decreased signal.
Chemicals and reagents. • AlphaScreen® General IgG (Protein A) Detection Kit, (PerkinElmer 6760617M) • HBS-P buffer (GE Healthcare, BR-1003-68) • HBS-N buffer (GE Healthcare, BR-1003-69) • CaCl2 in HBS-P • ZnCl2 in Milli-Q water • DMSO • Biotinylated hS100A9, (biotinylated via cystein by EZ-link Iodoacetyl-PEG2-Biotin reagent (Pierce no. 21334), in HBS-N • rhRAGE-Fc (R&D Systems, 1145-RG-50), in HBS-P
The AlphaScreen assay method is used for screening of the inhibitory effect of different compound samples at fixed concentrations or for IC50 determination by varying the compound concentrations. Samples of test compounds and references are prepared from solutions in DMSO. Relevant reference inhibitors and DMSO are used as controls for defined inhibition and non-inhibition, respectively in the assay. The percent inhibition in assay for test compounds and references are calculated by comparing their obtained assay signals with the signal values for the control with only DMSO (no compound).
Assay concentration of biotinylated hS100A9 and rhRAGE-Fc are batch dependent, and are determined and defined by separate cross-titration experiments using this AlphaScreen inhibition method to verify the optimal setup regarding signal strength and achievement of a defined inhibition with relevant reference compounds. The Final assay concentrations of Acceptor and Donor beads are 20 μg/mL.
Experimental Set Up for Screening, Preparation of Solutions and Beads.
Assay buffer is prepared by adding CaCl2 and ZnCl2 to HBS-P and is used freshly prepared in the experiment.
Biotin-hS100A9 solution for the experiment is prepared by dilution of appropriate amount of stock solution biot-hS100A9 in assay buffer (with CaCl2 and ZnCl2) and incubation in room temperature for 30 minutes.
rhRAGE-Fc solution for the experiment is prepared by dilution appropriate amount of rhRAGE-Fc stock in assay buffer.
Protein A Acceptor beads are diluted in assay buffer and are added to an equal volume of the prepared diluted rhRAGE-Fc solution.
In the case of `CCCc1ccc(S(=O)(=O)Nc2ccc(Cl)nc2O)cc1` [Example 179, N-(6-chloro-2-hydroxypyridin-3-yl)-4-propylbenzene-1-sulfonamide], the IC50 was < 1000 nM.

As to `COc1ncc(CS(=O)(=O)Nc2ccc(Cl)nc2O)cc1Cl` [Example 182, N-(6-chloro-2-hydroxypyridin-3-yl)-1-(5-chloro-6-methoxypyridin-3-yl)methane-sulfonamide], the IC50 was < 1000 nM.

On to `O=S(=O)(Cc1cnc(N2CCCC2)c(Cl)c1)Nc1ccc(Cl)nc1O` [Example 185, N-(6-chloro-2-hydroxypyridin-3-yl)-1-[5-chloro-6-(pyrrolidin-1-yl)pyridin-3-yl]-methanesulfonamide], for which the half-inhibitory concentration (IC50) is < 1000 nM. For the compound `CCSc1cc(Cl)cc(CS(=O)(=O)Nc2ccc(Cl)nc2O)c1` [Example 186, N-(6-chloro-2-hydroxypyridin-3-yl)-1-[3-chloro-5-(ethylsulfanyl)phenyl]methane-sulfonamide], the IC50 was < 1000 nM. The result for `CCS(=O)(=O)c1ccc(NS(=O)(=O)Cc2cc(Cl)cc(Cl)c2)c(O)n1` [Example 188, 1-(3,5-dichlorophenyl)-N-[6-(ethanesulfonyl)-2-hydroxypyridin-3-yl]methane-sulfonamide] reads < 1000 nM; that for `N#Cc1cnc(NS(=O)(=O)Cc2cc(Cl)cc(Cl)c2)c(O)c1` [Example 189, N-(5-cyano-3-hydroxypyridin-2-yl)-1-(3,5-dichlorophenyl)methanesulfonamide], 120 nM.
